According to EP4389751A1, “HETEROCYCLIC COMPOUNDS AND USES THEREOF” (Kumquat Biosciences Inc., priority 2021, dated 2024):

Legend:
K-Ras G12S = target: T1, K-Ras G12S (Homo sapiens, UniProt P01116, G12S); assay: HTRF assay of the K-Ras / SOS1 interaction; format: biochemical; conditions: IC50 (against K-Ras G12D) to IC50 (against K-Ras G12S)
T1 construct: made in house; host or cells: E. coli (e.g., BL21 (DE3))
Procedure, shortened: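 GST-K-Ras G12S with anti-GST-Eu donor and His-hSOS1 with anti-6His-XL665 acceptor in ~5 mM HEPES pH 7.4, ~150 mM NaCl, 1 mM DTT, 0.05% BSA, 0.0025% Igepal. Read after ~10 min or longer; IC50 from 665/620 nm ratio, duplicates at 10 µM down to 0.01 µM.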

[1] = target: T2, KRAS protein (His-tagged GDP-loaded G12S 1-169) (Homo sapiens, UniProt P01116, G12S); assay: Covalent modification of KRAS protein, intact-protein LC-MS; format: binding; conditions: 24hrs at room temperature, KRAS protein ~2 µM
T2 construct: His-tagged GDP-loaded G12S 1-169
Procedure, shortened: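 His-tagged GDP-loaded KRAS 1-169 (~2 µM) incubated with compound 24 h at room temperature, then quenched with formic acid. Intact-protein LC-ESI-MS on C4 column; deconvoluted peak intensities of unmodified and adducted protein give percent covalent modification.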

GP2D cells = assay: Cell proliferation assay (CellTiter-Glo), K-Ras G12D cells; format: cell-based; conditions: GP2D cells (K-Ras G12D); read-out: Inhibition of GP2D Cells (IC50)
Procedure, shortened: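 GP2D (K-Ras G12D) cells seeded in DMEM with 2 mM glutamine and 10% FBS, then dosed next day with a dilution series (e.g., 9-point 3-fold). Viability read by CellTiter-Glo luminescence after about 5 days. IC50 from four-parameter fit.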

Nc1nc2c(-c3c(Cl)cc4c(N5CC6(CCCN(C(=O)n7cncn7)C6)C5)nc(OC[C@@]56CCCN5C[C@H](F)C6)nc4c3F)ccc(F)c2s1 [Compound A230, (2-(7-(2-amino-7-fluorobenzo[d]thiazol-4-yl)-6-chloro-8-fluoro-2-(((2R,7aS)-2-fluorotetrahydro-1H-pyrrolizin-7a(5H)-yl)methoxy)quinazolin-4-yl)-2,6-diazaspiro[3.5]nonan-6-yl)(1H-1,2,4-triazol-1-yl)methanone]
Ratio of IC50 KRAS G12D vs. IC50 KRAS G12S (K-Ras G12S): A (A: indicates that the ratio of IC50 against KrasG12D vs. IC50 against KrasG12S is 1-fold or greater)
% G12S Modification at 24 hr. [1]: +++ (+++ indicates greater than 20% labelling)
IC50 (GP2D cells): 1000 to 10000 nM

Nc1nc2c(-c3c(Cl)cc4c(N5CCOC6(CCN(C(=O)n7cncn7)CC6)C5)nc(OCC56CCCN5C[C@H](F)C6)nc4c3F)ccc(F)c2s1 (stereo partly drawn) [Compound A243, (4-(7-(2-amino-7-fluorobenzo[d]thiazol-4-yl)-6-chloro-8-fluoro-2-(((2R)-2-fluorotetrahydro-1H-pyrrolizin-7a(5H)-yl)methoxy)quinazolin-4-yl)-1-oxa-4,9-diazaspiro [5.5]undecan-9-yl)(1H-1,2,4-triazol-1-yl)methanone]
Ratio of IC50 KRAS G12D vs. IC50 KRAS G12S (K-Ras G12S): A (A: indicates that the ratio of IC50 against KrasG12D vs. IC50 against KrasG12S is 1-fold or greater)
% G12S Modification at 24 hr. [1]: +++ (+++ indicates greater than 20% labelling)
IC50 (GP2D cells): 1000 to 10000 nM

N#Cc1cnn(C(=O)N2CCN(c3nc(OC[C@@]45CCCN4C[C@H](F)C5)nc4c(F)c(-c5ccc(F)c6sc(N)nc56)c(Cl)cc34)CC2)c1 [Compound A252, 1-(4-(7-(2-amino-7-fluorobenzo[d]thiazol-4-yl)-6-chloro-8-fluoro-2-(((2R,7aS)-2-fluorotetrahydro-1H-pyrrolizin-7a(5H)-yl)methoxy)quinazolin-4-yl)piperazine-1-carbonyl)-1H-pyrazole-4-carbonitrile]
Ratio of IC50 KRAS G12D vs. IC50 KRAS G12S (K-Ras G12S): A (A: indicates that the ratio of IC50 against KrasG12D vs. IC50 against KrasG12S is 1-fold or greater)
% G12S Modification at 24 hr. [1]: +++ (+++ indicates greater than 20% labelling)
IC50 (GP2D cells): 1000 to 10000 nM

N#Cc1c(N)sc2c(F)ccc(-c3c(Cl)cc4c(N5CC6(CCCN(C(=O)n7cncn7)C6)C5)nc(OC[C@@]56CCCN5C[C@H](F)C6)nc4c3F)c12 [Compound A266, 4-(4-(6-(1H-1,2,4-triazole-1-carbonyl)-2,6-diazaspiro[3.5]nonan-2-yl)-6-chloro-8-fluoro-2-(((2R,7aS)-2-fluorotetrahydro-1H-pyrrolizin-7a(5H)-yl)methoxy)quinazolm-7-yl)-2-amino-7-fluorobenzo[b]thiophene-3-carbonitrile]
Ratio of IC50 KRAS G12D vs. IC50 KRAS G12S (K-Ras G12S): A (A: indicates that the ratio of IC50 against KrasG12D vs. IC50 against KrasG12S is 1-fold or greater)
% G12S Modification at 24 hr. [1]: +++ (+++ indicates greater than 20% labelling)
IC50 (GP2D cells): 1000 to 10000 nM

Nc1nc2c(-c3c(Cl)cc4c(N5CC6(CN(C(=O)n7cncn7)CCO6)C5)nc(OC[C@@]56CCCN5C[C@H](F)C6)nc4c3F)ccc(F)c2s1 [Compound A268, (2-(7-(2-amino-7-fluorobenzo[d]thiazol-4-yl)-6-chloro-8-fluoro-2-(((2R,7aS)-2-fluorotetrahydro-1H-pyrrolizin-7a(5H)-yl)methoxy)quinazolin-4-yl)-5-oxa-2,8-diazaspiro[3.5]nonan-8-yl)(1H-1,2,4-triazol-1-yl)methanone]
Ratio of IC50 KRAS G12D vs. IC50 KRAS G12S (K-Ras G12S): A (A: indicates that the ratio of IC50 against KrasG12D vs. IC50 against KrasG12S is 1-fold or greater)
% G12S Modification at 24 hr. [1]: +++ (+++ indicates greater than 20% labelling)
IC50 (GP2D cells): 1000 to 10000 nM

N#Cc1c(N)sc2c(F)ccc(-c3c(Cl)cc4c(N5CCCC6(CCN(C(=O)n7cncn7)C6)C5)nc(OC[C@@]56CCCN5C[C@H](F)C6)nc4c3F)c12 (stereo partly drawn) [Compound A269, 4-(4-(2-(1H-1,2,4-triazole-1-carbonyl)-2,7-diazaspiro[4.5]decan-7-yl)-6-chloro-8-fluoro-2-(((2R,7aS)-2-fluorotetrahydro-1H-pyrrolizin-7a(5H)-yl)methoxy)quinazolin-7-yl)-2-amino-7-fluorobenzo[b]thiophene-3-carbonitrile]
Ratio of IC50 KRAS G12D vs. IC50 KRAS G12S (K-Ras G12S): A (A: indicates that the ratio of IC50 against KrasG12D vs. IC50 against KrasG12S is 1-fold or greater)
% G12S Modification at 24 hr. [1]: ++ (++ indicates between about 1%- 20% labelling)
IC50 (GP2D cells): 1000 to 10000 nM

Nc1nc2c(-c3c(Cl)cc4c(N5CCOC6(CN(C(=O)n7cncn7)C6)C5)nc(OC[C@@]56CCCN5C[C@H](F)C6)nc4c3F)ccc(F)c2s1 [Compound A273, (8-(7-(2-amino-7-fluorobenzo[d]thiazol-4-yl)-6-chloro-8-fluoro-2-(((2R,7aS)-2-fluorotetrahydro-1H-pyrrolizin-7a(5H)-yl)methoxy)quinazolin-4-yl)-5-oxa-2,8-diazaspiro[3.5]nonan-2-yl)(1H-1,2,4-triazol-1-yl)methanone]
Ratio of IC50 KRAS G12D vs. IC50 KRAS G12S (K-Ras G12S): A (A: indicates that the ratio of IC50 against KrasG12D vs. IC50 against KrasG12S is 1-fold or greater)
% G12S Modification at 24 hr. [1]: +++ (+++ indicates greater than 20% labelling)
IC50 (GP2D cells): 1000 to 10000 nM

Nc1nc2c(-c3c(Cl)cc4c(N5CC6(CCN(C(=O)n7cncn7)C6)C5)nc(OC[C@@]56CCCN5C[C@H](F)C6)nc4c3F)ccc(F)c2s1 [Compound A279, (2-(7-(2-amino-7-fluorobenzo[d]thiazol-4-yl)-6-chloro-8-fluoro-2-(((2R,7aS)-2-fluorotetrahydro-1H-pyrrolizin-7a(5H)-yl)methoxy)quinazolin-4-yl)-2,6-diazaspiro[3.4]octan-6-yl)(1H-1,2,4-triazol-1-yl)methanone]
Ratio of IC50 KRAS G12D vs. IC50 KRAS G12S (K-Ras G12S): A (A: indicates that the ratio of IC50 against KrasG12D vs. IC50 against KrasG12S is 1-fold or greater)
% G12S Modification at 24 hr. [1]: +++ (+++ indicates greater than 20% labelling)
IC50 (GP2D cells): 1000 to 10000 nM

N#Cc1c(N)sc2c(F)ccc(-c3c(Cl)cc4c(N5CCN(C(=O)n6cncn6)CC(F)(F)C5)nc(OC[C@@]56CCCN5C[C@H](F)C6)nc4c3F)c12 [Compound A280, 2-amino-4-(6-chloro-4-(6,6-difluoro-4-(1H-1,2,4-triazole-1-carbonyl)-1,4-diazepan-1-yl)-8-fluoro-2-(((2R,7aS)-2-fluorotetrahydro-1H-pyrrolizin-7a(5H)-yl)methoxy)quinazolin-7-yl)-7-fluorobenzo[b]thiophene-3-carbonitrile]
Ratio of IC50 KRAS G12D vs. IC50 KRAS G12S (K-Ras G12S): A (A: indicates that the ratio of IC50 against KrasG12D vs. IC50 against KrasG12S is 1-fold or greater)
% G12S Modification at 24 hr. [1]: +++ (+++ indicates greater than 20% labelling)
IC50 (GP2D cells): ≤ 1000 nM

CC1(C)CN(c2nc(OC[C@@]34CCCN3C[C@H](F)C4)nc3c(F)c(-c4ccc(F)c5sc(N)c(C#N)c45)c(Cl)cc23)CC2(CN(C(=O)n3cncn3)C2)O1 [Compound A296, 2-amino-4-(6-chloro-4-(6,6-dimethyl-2-(1H-1,2,4-triazole-1-carbonyl)-5-oxa-2,8-diazaspiro[3.5]nonan-8-yl)-8-fluoro-2-(((2R,7aS)-2-fluorotetrahydro-1H-pyrrolizin-7a(5H)-yl)methoxy)quinazolin-7-yl)-7-fluorobenzo[b]thiophene-3-carbonitrile]
Ratio of IC50 KRAS G12D vs. IC50 KRAS G12S (K-Ras G12S): A (A: indicates that the ratio of IC50 against KrasG12D vs. IC50 against KrasG12S is 1-fold or greater)
% G12S Modification at 24 hr. [1]: +++ (+++ indicates greater than 20% labelling)
IC50 (GP2D cells): 1000 to 10000 nM
